Assay results as given in ChEMBL document CHEMBL1201862, “PubChem BioAssay data set” (2004).
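All cell lines were grown in 96-well plates and treated with compound for 48 hours. GI50 = concentration required for 50% inhibition of growth.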 Calls of active or inactive are those of the source. Cut-off read from the data, not from the text of the source: active = GI50 up to about 1.1 µM and inactive = higher.

How the values were obtained:
Assay in all cases: DTP human tumour cell line panel, 48 h
BT-549 = system: BT-549
MCF7 = system: MCF7
MDA-MB-231 = system: MDA-MB-231
NCI/ADR-RES = system: NCI/ADR-RES
PC-3 = system: PC-3

Measured: GI50

C=CCN1C(=O)/C(=C/c2ccccc2)N=C1SC1OC(COC(=O)c2ccccc2)C(OC(=O)c2ccccc2)C1OC(=O)c1ccccc1 (stereo not given)
inactive: BT-549 > 100 µM | MCF7 15.1 µM | MDA-MB-231 91.2 µM | NCI/ADR-RES > 100 µM | PC-3 > 100 µM
